Results: PubChem BioAssay AID192 (DTP/NCI, 2004)
“And” between values parts separate entries of the source, which are not always exact repeats. Identical values can stand only once. Toxic doses and inconclusive results are not listed.

Tested on: BDF1 mice, B16 melanoma ip, median survival T/C
Experiment: NCI In Vivo Anticancer Drug Screen. Data for tumor model B16 Melanoma (intraperitoneal) in B6D2F1 (BDF1) mice
Conditions: endpoint: median survival time, higher = longer survival
Procedure, shortened: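 Each result divides a survival or tumor-size measurement in the compound-treated group by the same measurement in the vehicle group.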

[1] = dose: 100.0 mg/kg/injection, schedule: Q01DX009 (ip), vehicle: Klucel (hydroxypropylcellulose) (HPC)
[2] = dose: 200.0 mg/kg/injection, schedule: Q01DX009 (ip), vehicle: Klucel (hydroxypropylcellulose) (HPC)
[3] = dose: 25.0 mg/kg/injection, schedule: Q01DX009 (ip), vehicle: Klucel (hydroxypropylcellulose) (HPC)
[4] = dose: 100.0 mg/kg/injection, schedule: Q01DX009 (ip), vehicle: saline with Tween-80
[5] = dose: 200.0 mg/kg/injection, schedule: Q01DX009 (ip), vehicle: saline with Tween-80
[6] = dose: 50.0 mg/kg/injection, schedule: Q01DX009 (ip), vehicle: saline with Tween-80
[7] = dose: 50.0 mg/kg/injection, schedule: Q01DX009 (ip), vehicle: Klucel (hydroxypropylcellulose) (HPC)
[8] = dose: 0.98 mg/kg/injection, schedule: Q04DX003 (ip), vehicle: saline
[9] = dose: 1.4 mg/kg/injection, schedule: Q04DX003 (ip), vehicle: saline
[10] = dose: 2.0 mg/kg/injection, schedule: Q04DX003 (ip), vehicle: saline
[11] = dose: 0.39 mg/kg/injection, schedule: Q01DX009 (ip), vehicle: Klucel (hydroxypropylcellulose) (HPC)

Cc1ccc(NC(=O)Nc2ccc(C)c(NC(=O)Nc3ccc(C)cc3C)c2)c(C)c1
T/C [1]: 91 % of control | T/C [2]: 96 % of control

CCN(C(=O)CCl)C(C)(C)C(SSSC(c1ccc(Cl)cc1)C(C)(C)N(CC)C(=O)CCl)c1ccc(Cl)cc1 (configuration not stated)
T/C (dose: 12.5 mg/kg/injection, schedule: Q01DX009 (ip), vehicle: Klucel (hydroxypropylcellulose) (HPC)): 100 % of control | T/C [3]: 98 % of control

OC1(c2ccccc2)c2ccc(Br)cc2-c2cc(Br)ccc21
T/C [4]: 92 % of control | T/C [5]: 88 % of control

COc1ccccc1C(C#N)N1CCCN(C(C#N)c2ccccc2OC)C1c1cc(Cl)cc(Cl)c1O (configuration not stated)
T/C (dose: 6.25 mg/kg/injection, schedule: Q01DX009 (ip), vehicle: saline with Tween-80): 104 % of control | T/C (dose: 12.5 mg/kg/injection, schedule: Q01DX009 (ip), vehicle: saline with Tween-80): 101 % of control | T/C (dose: 25.0 mg/kg/injection, schedule: Q01DX009 (ip), vehicle: saline with Tween-80): 103 % of control | T/C [6]: 91 % of control and 124 % of control

CCCCCCNC(=O)Nc1cccc(Cl)c1C
T/C (dose: 100.0 mg/kg/injection, schedule: Q04DX003 (ip), vehicle: Klucel (hydroxypropylcellulose) (HPC)): 92 % of control | T/C (dose: 200.0 mg/kg/injection, schedule: Q04DX003 (ip), vehicle: Klucel (hydroxypropylcellulose) (HPC)): 90 % of control | T/C (dose: 400.0 mg/kg/injection, schedule: Q04DX003 (ip), vehicle: Klucel (hydroxypropylcellulose) (HPC)): 87 % of control

COC1C(O)C(C)OC(OC2CC(O)C3(C)C(CCC4C3CCC3(C)C(C5=CC(=O)OC5)CCC43O)C2)C1O (configuration not stated) (tested in a mixture with another compound)
T/C (dose: 2.0 mg/kg/injection, schedule: Q01DX009 (ip), vehicle: saline): 99 % of control | T/C (dose: 4.0 mg/kg/injection, schedule: Q01DX009 (ip), vehicle: saline): 97 % of control | T/C (dose: 8.0 mg/kg/injection, schedule: Q01DX009 (ip), vehicle: saline): 97 % of control | T/C (dose: 16.0 mg/kg/injection, schedule: Q01DX009 (ip), vehicle: saline): 94 % of control | T/C (dose: 32.0 mg/kg/injection, schedule: Q01DX009 (ip), vehicle: saline): 94 % of control | T/C (dose: 64.0 mg/kg/injection, schedule: Q01DX009 (ip), vehicle: saline): 88 % of control

CN[C@@H]1[C@H](O)[C@H](NC)[C@H]2O[C@@]3(O)C(=O)C[C@@H](C)O[C@H]3O[C@@H]2[C@H]1O
T/C (dose: 100.0 mg/kg/injection, schedule: Q01DX009 (ip), vehicle: saline): 108 % of control | T/C (dose: 200.0 mg/kg/injection, schedule: Q01DX009 (ip), vehicle: saline): 103 % of control | T/C (dose: 400.0 mg/kg/injection, schedule: Q01DX009 (ip), vehicle: saline): 113 % of control

Cc1[nH]c(=O)[nH]c(=O)c1[N+](=O)[O-]
T/C [1]: 100 % of control | T/C [2]: 95 % of control | T/C (dose: 400.0 mg/kg/injection, schedule: Q01DX009 (ip), vehicle: Klucel (hydroxypropylcellulose) (HPC)): 100 % of control

O=NN(CCCl)C(=O)Nc1c[nH]c2ccccc12
T/C [3]: 153 % of control and 158 % of control | T/C [7]: 157 % of control and 158 % of control and 165 % of control | T/C [1]: 162 % of control and 174 % of control | T/C [2]: 174 % of control

C[C@]12CC[C@@H]3c4ccc(O)cc4CC[C@H]3[C@@H]1C[C@@H](O)[C@@H]2O
T/C [7]: 102 % of control | T/C [1]: 100 % of control | T/C [2]: 90 % of control

COB1OB(OC)OB(OC)O1
T/C [6]: 103 % of control | T/C [4]: 104 % of control | T/C (dose: 100.0 mg/kg/injection, schedule: Q04DX003 (ip), vehicle: saline with Tween-80): 105 % of control | T/C [5]: 102 % of control | T/C (dose: 200.0 mg/kg/injection, schedule: Q04DX003 (ip), vehicle: saline with Tween-80): 112 % of control | T/C (dose: 400.0 mg/kg/injection, schedule: Q01DX009 (ip), vehicle: saline with Tween-80): 98 % of control | T/C (dose: 400.0 mg/kg/injection, schedule: Q04DX003 (ip), vehicle: saline with Tween-80): 110 % of control

C/C=C/C(=O)OCC1CCN(C)C1 (configuration not stated)
T/C (dose: 50.0 mg/kg/injection, schedule: Q01DX009 (ip), vehicle: water): 98 % of control | T/C (dose: 100.0 mg/kg/injection, schedule: Q01DX009 (ip), vehicle: water): 107 % of control | T/C (dose: 200.0 mg/kg/injection, schedule: Q01DX009 (ip), vehicle: water): 90 % of control

COC(=O)C[C@](O)(CCCC(C)(C)O)C(=O)O[C@@H]1C(OC)=C[C@]23CCCN2CCc2cc4c(cc2[C@H]13)OCO4
T/C (dose: 0.13 mg/kg/injection, schedule: Q01DX009 (ip), vehicle: saline sonified): 107 % of control | T/C (dose: 0.25 mg/kg/injection, schedule: Q01DX009 (ip), vehicle: saline sonified): 120 % of control | T/C (dose: 0.25 mg/kg/injection, schedule: Q01DX009 (ip), vehicle: saline with Tween-80): 114 % of control | T/C [8]: 121 % of control | T/C (dose: 1.0 mg/kg/injection, schedule: Q01DX009 (ip), vehicle: saline with Tween-80): 111 % of control | T/C [9]: 117 % of control | T/C [10]: 118 % of control | T/C (dose: 2.86 mg/kg/injection, schedule: Q04DX003 (ip), vehicle: saline): 117 % of control

CSCS(=O)C[C@H](CO)NC(=O)/C=C/c1c(C)[nH]c(=O)[nH]c1=O (some centres not stated)
T/C (dose: 0.06 mg/kg/injection, schedule: Q01DX009 (ip), vehicle: Klucel (hydroxypropylcellulose) (HPC)): 95 % of control | T/C (dose: 0.08 mg/kg/injection, schedule: Q01DX009 (ip), vehicle: water): 99 % of control | T/C (dose: 0.15 mg/kg/injection, schedule: Q01DX009 (ip), vehicle: water): 105 % of control | T/C (dose: 0.3 mg/kg/injection, schedule: Q01DX009 (ip), vehicle: water): 108 % of control | T/C (dose: 0.6 mg/kg/injection, schedule: Q01DX009 (ip), vehicle: water): 91 % of control | T/C [8]: 94 % of control | T/C [9]: 113 % of control | T/C [10]: 101 % of control

COC1C(O)=C2C(=O)OC(C)(O)/C=C/C=C\C=C/C=C/C(c3ccccc3)NC(=O)/C=C/C=C/C=C/C=C/C2(C)C1O (configuration not stated)
T/C [11]: 103 % of control | T/C (dose: 0.78 mg/kg/injection, schedule: Q01DX009 (ip), vehicle: Klucel (hydroxypropylcellulose) (HPC)): 104 % of control | T/C (dose: 1.56 mg/kg/injection, schedule: Q01DX009 (ip), vehicle: Klucel (hydroxypropylcellulose) (HPC)): 96 % of control | T/C (dose: 1.56 mg/kg/injection, schedule: Q01DX009 (ip), vehicle: other): 104 % of control | T/C (dose: 3.12 mg/kg/injection, schedule: Q01DX009 (ip), vehicle: Klucel (hydroxypropylcellulose) (HPC)): 106 % of control | T/C (dose: 3.12 mg/kg/injection, schedule: Q01DX009 (ip), vehicle: other): 103 % of control | T/C (dose: 6.25 mg/kg/injection, schedule: Q01DX009 (ip), vehicle: other): 101 % of control | T/C (dose: 12.5 mg/kg/injection, schedule: Q01DX009 (ip), vehicle: other): 97 % of control

Cn1c(O)c(C=N)c(=O)[nH]c1=O
T/C (dose: 75.0 mg/kg/injection, schedule: Q01DX009 (ip), vehicle: Klucel (hydroxypropylcellulose) (HPC)): 90 % of control | T/C (dose: 300.0 mg/kg/injection, schedule: Q01DX009 (ip), vehicle: Klucel (hydroxypropylcellulose) (HPC)): 90 % of control

CC[S][Hg][Cl]
T/C (dose: 0.75 mg/kg/injection, schedule: Q04DX003 (ip), vehicle: saline with Tween-80): 93 % of control | T/C (dose: 1.5 mg/kg/injection, schedule: Q04DX003 (ip), vehicle: saline with Tween-80): 100 % of control | T/C (dose: 3.0 mg/kg/injection, schedule: Q04DX003 (ip), vehicle: saline with Tween-80): 97 % of control | T/C (dose: 6.25 mg/kg/injection, schedule: Q04DX003 (ip), vehicle: saline with Tween-80): 86 % of control

O=C1C=C2C(=CCOC2O)O1 (configuration not stated)
T/C [11]: 96 % of control | T/C (dose: 0.75 mg/kg/injection, schedule: Q01DX009 (ip), vehicle: Klucel (hydroxypropylcellulose) (HPC)): 106 % of control | T/C (dose: 1.5 mg/kg/injection, schedule: Q01DX009 (ip), vehicle: Klucel (hydroxypropylcellulose) (HPC)): 96 % of control | T/C (dose: 3.0 mg/kg/injection, schedule: Q01DX009 (ip), vehicle: Klucel (hydroxypropylcellulose) (HPC)): 86 % of control

CCC(C)C#N (configuration not stated)
T/C (dose: 5.0 mg/kg/injection, schedule: Q01DX009 (ip), vehicle: saline): 97 % of control | T/C (dose: 10.0 mg/kg/injection, schedule: Q01DX009 (ip), vehicle: saline): 95 % of control | T/C (dose: 20.0 mg/kg/injection, schedule: Q01DX009 (ip), vehicle: saline): 100 % of control

CCCCC(CCC)(CCN)CCCC
T/C (dose: 1.0 mg/kg/injection, schedule: Q01DX009 (ip), vehicle: saline sonified): 102 % of control | T/C (dose: 2.0 mg/kg/injection, schedule: Q01DX009 (ip), vehicle: saline sonified): 97 % of control | T/C (dose: 4.0 mg/kg/injection, schedule: Q01DX009 (ip), vehicle: saline sonified): 100 % of control
